Measured values: the NIST ThermoML archive (doi:10.1021/je100598x)

Test: cn = amount concentration of the nth substance listed, in mol/dm3
Details: 101 kPa, Liquid, Direct current cell with electrodes

CCCCCCCCCCCC[N+](CCCC)(CCCC)CCCC.[Br-] [dodecyltributylammonium bromide] + O
electrical conductivity [S/m]
Details	288.15 K	293.15 K	298.15 K	303.15 K	308.15 K	313.15 K	318.15 K
c1 = 0.000658	0.005218	0.00579	0.00649	0.007326	0.00785	0.008542	0.00923
c1 = 0.001299	0.009805	0.01101	0.01226	0.0138	0.01502	0.01631	0.0177
c1 = 0.001923	0.01419	0.01604	0.0179	0.0201	0.0218	0.0238	0.0258
c1 = 0.002532	0.01845	0.0208	0.0233	0.0262	0.0283	0.0309	0.0336
c1 = 0.003125	0.0226	0.0254	0.0287	0.0319	0.0346	0.0378	0.0412
c1 = 0.003704	0.0265	0.03	0.0335	0.0374	0.0407	0.0445	0.0484
c1 = 0.004268	0.0303	0.0341	0.0383	0.0427	0.0465	0.0509	0.0551
c1 = 0.004819	0.034	0.0384	0.0429	0.0476	0.0517	0.0566	0.0619
c1 = 0.005357	0.0377	0.0423	0.0472	0.052	0.0567	0.0619	0.0672
c1 = 0.005882	0.041	0.0459	0.0508	0.0554	0.0599	0.0658	0.0712
c1 = 0.006395	0.0441	0.0487	0.0532	0.0578	0.0629	0.069	0.0752
c1 = 0.006896	0.0466	0.0509	0.0556	0.0601	0.0658	0.072	0.0785
c1 = 0.007386	0.0485	0.0524	0.0575	0.0626	0.0678	0.0747	0.0817
c1 = 0.007865	0.05	0.0542	0.059	0.0647	0.0706	0.0773	0.0845
c1 = 0.008333	0.0513	0.0554	0.061	0.0666	0.0728	0.0798	0.0874
c1 = 0.008791	0.0523	0.0568	0.0622	0.0685	0.0749	0.0822	0.09
c1 = 0.009239	0.0537	0.0582	0.0641	0.0703	0.077	0.0845	0.0926
c1 = 0.009677	0.0548	0.0598	0.0652	0.0721	0.0789	0.0867	0.0952
c1 = 0.01011	0.0556	0.061	0.0671	0.0737	0.0804	0.0889	0.0976
c1 = 0.01053	0.0572	0.0623	0.0686	0.0757	0.0829	0.0913	0.1003
c1 = 0.01094	0.0583	0.0636	0.0701	0.0774	0.0849	0.0935	0.1028
c1 = 0.01134	0.0594	0.0649	0.0716	0.0791	0.0868	0.0957	0.105
c1 = 0.01174	0.0605	0.0661	0.073	0.0807	0.0887	0.0978	0.108
c1 = 0.01212	0.0615	0.0673	0.0744	0.0824	0.0905	0.0998	0.11
c1 = 0.0125	0.0626	0.0685	0.0758	0.084	0.0923	0.1019	0.1122

CCCCCCCCCCCC[N+](C)(C)C.[Br-] [dodecyltrimethylammonium bromide] + O
electrical conductivity [S/m]
Details	288.15 K	293.15 K	298.15 K	303.15 K	308.15 K	313.15 K	318.15 K
c1 = 0.001961	0.0157	0.0175	0.0196	0.0218	0.0238	0.0261	0.0279
c1 = 0.003846	0.0294	0.0332	0.0372	0.0411	0.045	0.0494	0.0531
c1 = 0.00566	0.0421	0.0478	0.0533	0.0592	0.0647	0.0711	0.076
c1 = 0.007407	0.0542	0.0614	0.0689	0.0762	0.0833	0.0914	0.0969
c1 = 0.009091	0.0654	0.0743	0.0833	0.0921	0.1007	0.1109	0.119
c1 = 0.01071	0.0762	0.0865	0.0964	0.107	0.117	0.129	0.139
c1 = 0.01228	0.0863	0.098	0.11	0.1218	0.1328	0.146	0.158
c1 = 0.01379	0.0954	0.109	0.1222	0.136	0.148	0.1623	0.175
c1 = 0.01525	0.105	0.119	0.1337	0.148	0.162	0.178	0.1919
c1 = 0.01667	0.1103	0.125	0.1405	0.157	0.1727	0.1907	0.206
c1 = 0.01758	0.1125	0.128	0.1433	0.1605	0.177	0.197	0.215
c1 = 0.01848	0.1143	0.13	0.146	0.1634	0.1807	0.201	0.222
c1 = 0.01936	0.116	0.1315	0.148	0.166	0.1837	0.205	0.226
c1 = 0.02021	0.117	0.1332	0.1501	0.168	0.187	0.209	0.23
c1 = 0.02105	0.119	0.135	0.1521	0.17	0.19	0.212	0.234
c1 = 0.02188	0.1203	0.137	0.154	0.172	0.1922	0.215	0.238
c1 = 0.02268	0.1216	0.138	0.156	0.1741	0.195	0.218	0.242
c1 = 0.02347	0.1229	0.14	0.158	0.176	0.198	0.22	0.246
c1 = 0.02424	0.1242	0.1411	0.159	0.178	0.2	0.223	0.249
c1 = 0.025	0.126	0.1425	0.161	0.1805	0.203	0.226	0.252
c1 = 0.02611	0.127	0.145	0.1636	0.1831	0.206	0.23	0.258
c1 = 0.02718	0.129	0.147	0.166	0.186	0.21	0.234	0.263
c1 = 0.02823	0.131	0.149	0.169	0.189	0.213	0.238	0.268
c1 = 0.02925	0.1327	0.151	0.171	0.1912	0.217	0.242	0.272
c1 = 0.03023	0.1344	0.1529	0.1733	0.1937	0.22	0.246	0.277
